Among the data in PubChem BioAssay AID1508591 are half-life values, retold here.

Bounds are passed on as bounds.

For this series the following is noted: rat; liver microsomes; pH 7.4; 15.0 min; 1.0 µM. On the technique in general: Liver microsomes are vesicles of endoplasmic reticulum, rich in cytochrome P450 enzymes.
As usually defined, the half-life is the time needed for the level to fall by half in the phase considered. A high value points to slow decline. Regarding `COc1cc2c(cc1NC(=O)COc1ccc(Cl)cc1)oc1ccccc12`, the half-life stood at 8.77 min.

Take `Nc1ccc(S(=O)(=O)Nc2cnccc2C(=O)Nc2nc(-c3ccccc3)cs2)cc1`: the half-life came out at 25 min.

Regarding `CN1C(=O)CN=C(c2ccccc2Cl)c2cc(Cl)ccc21`, the half-life came to 3.04 min.

As for `Cc1ccnc(NC(=S)N2CCC(Nc3cccc(C(F)(F)F)c3)CC2)c1`, the half-life worked out at 20 min. Against the preceding compound, the half-life is about 6.6-fold higher.

In the case of `Cc1ccc(NC(=O)c2ccncc2NS(=O)(=O)c2ccc(C)cc2)cc1`, the half-life came out at 2.9 min.

In turn, `CC(=O)N1CCC2(CCCN(c3ccc(-c4ccccc4)cc3)C2)CC1` gave a half-life of 16 min.

Compound `Cc1nnc2c3ccccc3nc(N3CCN(c4ccccc4)CC3)n12` had a half-life of over 30 min.

The compound `CCn1cc(CNC(=O)c2cc(-c3ccc(C)cc3)nc3ccc(Br)cc23)c(C)n1` came in with a half-life of 10.9 min.

On to `O=c1[nH]c(N2CCOCC2)nc2c1CCN(Cc1ccc(Cl)cc1F)CC2`, for which the half-life is over 30 min.

On to `Oc1ccccc1NCC(O)Cn1ccc2ccccc21` (stereo not drawn), for which the half-life is 2.37 min.

The compound `CNc1oc(-c2ccccc2-c2ccccc2)nc1C#N` showed a half-life of 5.8 min.

On to `Cc1nc2c(-c3ccccc3)cnn2c(N)c1-c1ccccc1`, for which the half-life was over 30 min.

Compound `Cc1cc(C)c2nc(-c3ccccn3)cc(C(=O)Nc3ccc(S(=O)(=O)Nc4onc(C)c4C)cc3)c2c1` gave a half-life of over 30 min.

`COc1ccc(CNC(=O)CCCn2nc(C)c3c(C)n(-c4ccc(C)cc4)nc3c2=O)cc1OC` came in with a half-life of 4.18 min.

The compound `FC(F)(F)c1ccccc1-c1nc(NCc2ccccc2)c2ccccc2n1` yielded a half-life of 2.74 min.

`CCOc1ccc(CNc2ccc3c(c2)ncn3C)cc1` registered a half-life of 21 min. This half-life is about 7.7-fold higher than that of the compound before.

`COc1ccc(NC(=O)c2ccc[nH]2)cc1S(=O)(=O)Nc1ccc(Br)cc1` came in with a half-life of 7.44 min.

Compound `COCCNc1ncnc2onc(-c3ccc(F)cc3)c12` gave a half-life of over 30 min.

`Cc1nnn(C)c1-c1cnc2c3ccc(C(C)(C)O)cc3n([C@H](c3ccccc3)C3CCOCC3)c2c1` yielded a half-life of over 30 min.

Regarding `N#Cc1cccc(-c2csc(N3CCC(C(N)=O)CC3)n2)c1`, the half-life is 1.74 min.

Compound `CCc1ccc(NC(=O)c2[nH]c(C)c(C(C)=O)c2C)cc1[S+](=O)([O-])N1CCCCCC1` yielded a half-life of 2.1 min. This half-life and that of the compound before are within 1.5-fold of each other.

Compound `CCOC(=O)N1CCN(Cc2nc3cc(NC(=O)CC(C)C)ccc3n2C(C)C)CC1` displayed a half-life of over 30 min.

Consider `CCc1[nH]c2ccc(CNC(=O)Cc3cnc4c(C)cccn34)cc2c1C`, for which the half-life amounted to 2.4 min.

As for `O=[S+]([O-])(Nc1ccc(C2CCNCC2)cc1)c1ccc(NCc2ccc(Cl)cc2O)cc1`, the half-life is over 30 min.

The compound `CCOc1ccc(CCNC(=O)c2cc3sccc3n2Cc2cccc(C)c2)cc1OCC` registered a half-life of 1.8 min.

The compound `CC(C)(C)c1ccc(S(=O)(=O)N2CCC(c3ccncc3)CC2)cc1` returned a half-life of 14.3 min.

The compound `COc1ccc(NC(C)=O)cc1S(=O)(=O)Nc1ccc(Br)cc1` showed a half-life of over 30 min.

`Nc1nc2c(s1)C(c1cccc(Cl)c1Cl)CC(=O)N2` (stereo not drawn) gave a half-life of 26 min.

With `O=C(Nc1ccc(F)cc1F)c1cc(-c2ccc[nH]2)n[nH]1`, the half-life was found to be 16.7 min.

Turning to `O=C(N[C@@H](Cc1ccccc1)C(=O)CCl)OCc1ccccc1`, the half-life is 14 min.

On to `CCOc1ccc(CCNC(=O)c2ccc(C(=O)c3ccccc3)cc2)cc1OCC`, for which the half-life was determined as 2.8 min.

Turning to `Cc1ccc(S(=O)(=O)Nc2cc(Cl)cc(C(=O)Nc3nc(-c4ccccc4)cs3)c2)cc1`, the half-life was 22 min.

With `C#CCNC(=O)c1nc(-c2cccnc2)c2ccccn12`, the half-life stood at 14.8 min.

In turn, `CNc1oc(-c2ccc(-c3ccccc3)cc2)nc1C#N` showed a half-life of over 30 min.

Turning to `O=C1Nc2ccc(I)cc2C1=Cc1cc(Br)c(O)c(Br)c1`, the half-life is over 30 min.

Take `O=C(c1ccco1)N1CCN(c2nc(-c3ccc(Br)cc3)cs2)CC1`: the half-life was over 30 min.

As for `CC/C=C\C/C=C\C/C=C\C/C=C\C/C=C\C/C=C\CCC(=O)NCCO`, the half-life came out at 4.94 min.

Turning to `Fc1cc(Nc2nc(-c3ccncc3)nc3ccccc23)ccc1-c1ccnc(C(F)(F)F)c1`, the half-life is 8.6 min.

On to `Cc1ccc(S(=O)(=O)N(C)c2ccccc2C(=O)Nc2nc(-c3ccccc3)cs2)cc1`, for which the half-life was 1.7 min. This half-life lies about 5.1-fold lower than the previous one.

`Cc1ccc(-c2cc(C(=O)Nc3ccc(S(C)(=O)=O)cc3)c3ccccc3n2)cc1C` gave a half-life of over 30 min.

On to `O=C1CCC(CNC(=O)c2nc(-c3ccccc3)cc3[nH]ccc23)N1` (stereo not drawn), for which the half-life is over 30 min.

The compound `Cc1ccc(NC(=O)CSc2ncc(S(=O)(=O)c3ccc(C(C)C)cc3)c(=O)[nH]2)cc1C` registered a half-life of 4.98 min.

In turn, `CCNc1oc(-c2cccc3ccccc23)nc1C#N` came in with a half-life of 13 min.

On to `Oc1ccc(CNc2ccc(F)cc2F)c2cccnc12`, for which the half-life worked out at 3.19 min. This half-life lies about 4.1-fold lower than the previous one.

Compound `O=C(Cn1c2ncccc2c(=O)n1-c1ccccc1)Nc1ccc(Cl)cc1C(F)(F)F` returned a half-life of 4.81 min.

`CCCCOc1ccc(CNC(=O)c2cc3n(n2)CCCN(Cc2ccc(C)cc2)C3=O)cc1` came in with a half-life of 4.33 min.

`COC(=N)c1nc2ccc3ncnc(Nc4ccc(F)cc4Br)c3c2s1` returned a half-life of over 30 min.

In turn, `O=C(Nc1nc(-c2ccc(F)cc2)cs1)c1ccncc1NS(=O)(=O)c1ccc(F)cc1` had a half-life of over 30 min.

In turn, `COc1ccc(-c2csc(N3CCC(C(N)=O)CC3)n2)cc1` gave a half-life of 4.68 min.

With `CN(C)C(=O)c1nc(-c2ccc(Cl)cc2Cl)c2cnccn12`, the half-life stood at 6.29 min.

Compound `N[C@H]1CN(c2c(F)cc3c(=O)c(C(=O)O)cn(C4C[C@@H]4F)c3c2Cl)CC12CC2` (stereo partly drawn) returned a half-life of over 30 min.

`Cc1sc(NC(=O)Cc2ccc3c(c2)OCO3)nc1-c1ccc2c(c1)CCN2C(=O)C1CCCCC1` had a half-life of 8.6 min.

`Cc1ccc(S(=O)(=O)Nc2cnccc2C(=O)Nc2nc(-c3ccc(F)cc3)cs2)cc1` came in with a half-life of over 30 min.

Take `O=C1Nc2ccccc2/C1=C\c1ccc(C(=O)O)cc1`: the half-life is over 30 min.

Compound `Cc1nn2c(c1-c1ccccc1-c1ccccc1)N(CCC(C)C)CCC2` came in with a half-life of 1.31 min.

The compound `CN[C@@H]1C[C@@H](c2ccc(Cl)c(Cl)c2)c2ccccc21` registered a half-life of 17.2 min.

For `COc1cccc(CNc2ccc(S(=O)(=O)Nc3cccnc3)cc2)c1O`, the half-life is 15 min.

As for `Cc1cc(F)ccc1-c1nc(NCCN=C(N)NC#N)nc2c1ccc(=O)n2-c1c(F)cccc1F`, the half-life turned out to be 5.23 min.

In turn, `Cc1csc2nc(-c3cccc(NC(=O)c4cccc(F)c4)c3)cn12` displayed a half-life of 3.67 min.

Consider `c1ccc(C2=Nn3c(nnc3-c3ccncc3)SC2)cc1`, for which the half-life was found to be 9.1 min. This half-life lies about 2.5-fold higher than the previous one.

With `COc1c(O)cc2c(c1OC)-c1ccc(SC)c(=O)cc1C(NC(C)=O)CC2` (stereo not drawn), the half-life was over 30 min.

As for `Cn1cc(S(=O)(=O)N2CCOCC2)cc1C(=O)Nc1ccc(Cl)c(C(F)(F)F)c1`, the half-life is over 30 min.

On to `Cc1nn2c(c1-c1ccccc1Oc1ccccc1)N(Cc1ccccc1O)CCC2`, for which the half-life turned out to be 1.76 min.

`C/C=C1/CN2CC[C@@]34c5ccccc5N(C)[C@@H]3[C@@H]2C[C@@H]1[C@H]4C(=O)OC` registered a half-life of 4.13 min.

In the case of `O=C(Nc1cc(Cc2ccccc2)ccn1)c1ccc(-c2cccc([N+](=O)[O-])c2)o1`, the half-life was 4.8 min.

Consider `Cc1cccc(N2CCN(c3nc4ccccc4c4nnc(C)n34)CC2)c1C`, for which the half-life came to 17.6 min.

Consider `CC(=O)N1CCN(c2nc(-c3ccc(Br)cc3)cs2)CC1`, for which the half-life was over 30 min.

`CC1CCC(NC(=O)c2ccc3c(c2)N(Cc2ccccc2F)C(=O)c2ccccc2S3)CC1` (stereo not drawn) showed a half-life of 2.12 min.

The compound `CCOc1ccc(S(=O)(=O)NCc2cccnc2)cc1NC(=O)c1ccccc1F` returned a half-life of 2.82 min.

Regarding `Cc1cc(-c2nnc3n2CCCCC3)c(C)n1-c1ccncc1`, the half-life was found to be 14 min. Against the preceding compound, the half-life is about 5-fold higher.

In the case of `CCOc1ccc(NC(=O)CC2C(=O)N(c3ccc(F)cc3)C(=O)N2CCc2sccc2C)cc1` (stereo not drawn), the half-life was 1.33 min.

For the compound `CCN1CCc2c(sc(NC(=O)Nc3ccc(Cl)c(Cl)c3)c2C(N)=O)C1`, the half-life is over 30 min.

`CC[C@@]1(O)C(=O)OCc2c1cc1n(c2=O)Cc2cc3ccccc3nc2-1` showed a half-life of over 30 min.

The compound `Oc1ccc(-c2nc(C3CC3)nc3c2CCN(Cc2ccc(F)cc2)CC3)cc1` came in with a half-life of 2.02 min.

Compound `CCOc1cc(F)c(CCNC(=O)c2cc3sccc3n2Cc2ccccc2)cc1OCC` yielded a half-life of 1.8 min.

For `Cc1cnc(-c2ccccc2C(C)C)nc1NCC1CCN(C2COC2)CC1`, the half-life came to 7.7 min.

Regarding `O=c1c2ccccc2nc(/C=C/c2cccnc2)n1Cc1ccccc1`, the half-life is 8.99 min.

In turn, `Cc1cc(C)nc(NC(=S)N2CCN(c3cc(C(F)(F)F)nc4ccc(C(F)(F)F)cc34)CC2)c1` had a half-life of over 30 min.

On to `COc1cccc(C(=O)Nc2nc(-c3nnn(-c4cc(C)ccc4C)c3C)ns2)c1`, for which the half-life worked out at 17.6 min.

The compound `COc1ccc(N2Cc3cccc(C(=O)Nc4ccc(C(C)C)cc4)c3C2=O)cc1` showed a half-life of over 30 min.

In turn, `O=C(Nc1ncnc2sc3c(c12)CCC3)c1ccco1` came in with a half-life of 5.6 min.

With `Cc1cccc(C(=O)Nc2ccc(N3CCC(N4CCCCC4)CC3)c(C(=O)O)c2)c1`, the half-life is over 30 min.

The compound `O=c1[nH]nc(Sc2ncc([N+](=O)[O-])s2)n1-c1ccc2c(c1)OCCO2` showed a half-life of 1.02 min.

In turn, `O=C1CCCCc2cc(O)c(O)cc21` gave a half-life of over 30 min.

Compound `CCN(CC)CCOc1ccc2c(=O)c3ccc(Cl)cc3n(CCN(CC)CC)c2c1` showed a half-life of 7.9 min.

On to `Cc1nn(Cc2ccccc2Cl)c(C)c1CN(C)CC(O)COc1ccc(Cl)cc1` (stereo not drawn), for which the half-life stood at 2.2 min.

The compound `Cc1cc(-c2nnc3n2CCCCC3)c(C)n1-c1ccccc1` displayed a half-life of 3.27 min.

Regarding `O=[S+]([O-])(Nc1ccc2ccccc2c1)c1ccc(NCc2ccc(Cl)cc2O)cc1`, the half-life was found to be 21 min. This half-life is about 6.4-fold higher than that of the compound before.

On to `CCCCC(C)/C=C(C)/C=C(\C)C(=O)NC1=CC(O)(/C=C/C=C/C=C/C(=O)NC2=C(O)CCC2=O)C2OC2C1=O` (stereo not drawn), for which the half-life was 1.83 min.

Consider `Cc1cccc(C)c1C(=O)Nc1cccc([S+](=O)([O-])N2CCCCCC2)c1`, for which the half-life is 1.6 min.

The compound `O=S(=O)(Nc1nccs1)c1ccc(NCc2cccc(Cl)c2Cl)cc1` yielded a half-life of 25 min.

On to `CCC[C@@H]1CN(C(=O)c2ccc(-c3ccc(C)o3)cc2)C[C@H]1NC(C)=O`, for which the half-life turned out to be 13.2 min. Against the preceding compound, the half-life is about 1.9-fold lower.

Compound `NC(=O)C1CCN(c2nc(-c3ccc(N)cc3)cs2)CC1` displayed a half-life of over 30 min.
